From publication PMC12076188 (Cancer Research Communications, 2025)
Entries after “also recorded” stand apart in the source; their conditions may differ. Like-named read-outs stand apart in the source and are kept apart here.

How the values were obtained:
Opioid μ = Opioid μ (Homo sapiens, UniProt P35372); assay: 41-target safety off-target activity panel
[1] = test system: Ba/F3 cells carrying NRAS p.G12C; assay: Ba/F3-engineered cell line viability; type: cell-based; conditions: Mus musculus, BaF3; Ba/F3 cell line carrying NRAS p.G12C; read-out: cell viability inhibitory IC50
Method: (§1) The inhibitory activity of compounds on Ba/F3-engineered cell line viability was tested by Kyinno Biotechnology. Other cell viability assays on human cancer cell lines were conducted in-house. Cells were seeded in 96-well plates and incubated overnight, followed by treatment with various concentrations of compounds or solvent control for 6 days. Cell viability was detected using either the CellTiter-Glo (CTG) luminescent cell viability assay or the CTG 3D cell viability assay (Promega) for 2D and 3D CTG assays, respectively. […] The cell density is indicated in Supplementary Table S3.

[2] = test system: Ba/F3 cells carrying HRAS p.G12C; assay: Ba/F3-engineered cell line viability; type: cell-based; conditions: Mus musculus, BaF3; Ba/F3 cell line carrying HRAS p.G12C; read-out: cell viability inhibitory IC50
Method: as §1

[3] = target: 5-Hydroxytryptamine 5HT2C (Homo sapiens, UniProt P28335); assay: 41-target safety off-target activity panel
Chain of 5-Hydroxytryptamine 5HT2C (P28335 33-458): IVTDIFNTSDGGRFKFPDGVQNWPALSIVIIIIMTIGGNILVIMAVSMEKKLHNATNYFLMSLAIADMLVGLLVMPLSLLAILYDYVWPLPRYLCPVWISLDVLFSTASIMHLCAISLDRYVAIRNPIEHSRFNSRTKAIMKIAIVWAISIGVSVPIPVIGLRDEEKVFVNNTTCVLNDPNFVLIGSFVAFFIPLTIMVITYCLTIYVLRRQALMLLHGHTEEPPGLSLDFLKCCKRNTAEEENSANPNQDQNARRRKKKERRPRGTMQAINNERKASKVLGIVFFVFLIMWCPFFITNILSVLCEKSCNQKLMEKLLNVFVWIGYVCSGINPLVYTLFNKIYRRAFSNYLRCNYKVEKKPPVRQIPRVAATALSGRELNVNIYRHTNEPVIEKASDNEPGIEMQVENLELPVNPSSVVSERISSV

[4] = target: Norepinephrine Transporter NET (Homo sapiens, UniProt P23975); assay: 41-target safety off-target activity panel
Chain of Norepinephrine Transporter NET (P23975 whole entry): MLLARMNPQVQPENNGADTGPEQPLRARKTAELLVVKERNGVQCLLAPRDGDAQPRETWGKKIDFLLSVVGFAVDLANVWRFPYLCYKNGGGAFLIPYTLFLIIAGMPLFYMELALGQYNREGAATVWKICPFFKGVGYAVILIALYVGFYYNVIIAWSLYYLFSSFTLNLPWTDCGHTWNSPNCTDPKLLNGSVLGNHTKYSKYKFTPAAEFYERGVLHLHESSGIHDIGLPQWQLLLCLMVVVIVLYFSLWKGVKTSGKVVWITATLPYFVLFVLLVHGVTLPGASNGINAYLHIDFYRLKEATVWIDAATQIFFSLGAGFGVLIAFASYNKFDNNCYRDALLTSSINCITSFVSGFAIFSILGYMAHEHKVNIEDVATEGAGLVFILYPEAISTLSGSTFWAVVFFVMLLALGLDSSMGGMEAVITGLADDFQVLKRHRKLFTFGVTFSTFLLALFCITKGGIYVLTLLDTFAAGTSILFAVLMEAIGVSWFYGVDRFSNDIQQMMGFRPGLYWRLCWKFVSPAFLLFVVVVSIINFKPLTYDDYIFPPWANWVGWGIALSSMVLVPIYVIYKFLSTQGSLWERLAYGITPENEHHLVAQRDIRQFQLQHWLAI

Monoamine oxidase MAO-A = Monoamine oxidase MAO-A (Homo sapiens, UniProt P21397); assay: 41-target safety off-target activity panel
Chain of Monoamine oxidase MAO-A (P21397 whole entry): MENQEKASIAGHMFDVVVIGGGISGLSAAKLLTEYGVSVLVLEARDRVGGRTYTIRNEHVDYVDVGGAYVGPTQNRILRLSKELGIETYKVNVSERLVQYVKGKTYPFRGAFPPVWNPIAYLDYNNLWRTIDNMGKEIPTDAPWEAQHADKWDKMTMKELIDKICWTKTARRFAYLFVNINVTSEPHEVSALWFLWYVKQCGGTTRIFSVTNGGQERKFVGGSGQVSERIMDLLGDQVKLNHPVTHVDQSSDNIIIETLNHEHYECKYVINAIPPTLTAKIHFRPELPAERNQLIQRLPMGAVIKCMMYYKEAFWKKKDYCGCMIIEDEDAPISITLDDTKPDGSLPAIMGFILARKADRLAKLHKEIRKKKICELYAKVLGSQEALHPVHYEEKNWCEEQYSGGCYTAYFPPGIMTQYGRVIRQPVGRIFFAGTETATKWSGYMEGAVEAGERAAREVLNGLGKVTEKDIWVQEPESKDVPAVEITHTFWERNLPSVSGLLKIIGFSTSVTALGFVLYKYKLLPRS

[5] = test system: cysteine-containing peptides in NCI-H358 cells; assay: Cysteine proteome analysis; type: cell-based, human; conditions: NCI-H358, 1 μmol/L, 4 hours, n = 5
Method: The cysteine proteome analysis was performed by IQ Proteomics. Briefly, collected cell pellets were lysed and treated to label remaining unreacted cysteines. Labeled peptides were enriched by streptavidin agarose and analyzed by nano LC/MS. The adjusted P values were calculated according to the Benjamini–Hochberg method using the JMP statistical analysis software. Log2 fold changes between the glecirasib-treated group and DMSO controls were taken as the abscissa (x-axis), and statistical significance (P value) of the difference between the glecirasib-treated group and DMSO controls was taken as the ordinate (y-axis).

skin = assay: Phototoxicity Study; type: in vivo, England Guinea Pig; conditions: single dose 300 and 1000 mg/kg oral gavage followed by UV irradiation; GLP
Opioid δ = Opioid δ (Homo sapiens, UniProt P41143); assay: 41-target safety off-target activity panel
Chain of Opioid δ (P41143 whole entry): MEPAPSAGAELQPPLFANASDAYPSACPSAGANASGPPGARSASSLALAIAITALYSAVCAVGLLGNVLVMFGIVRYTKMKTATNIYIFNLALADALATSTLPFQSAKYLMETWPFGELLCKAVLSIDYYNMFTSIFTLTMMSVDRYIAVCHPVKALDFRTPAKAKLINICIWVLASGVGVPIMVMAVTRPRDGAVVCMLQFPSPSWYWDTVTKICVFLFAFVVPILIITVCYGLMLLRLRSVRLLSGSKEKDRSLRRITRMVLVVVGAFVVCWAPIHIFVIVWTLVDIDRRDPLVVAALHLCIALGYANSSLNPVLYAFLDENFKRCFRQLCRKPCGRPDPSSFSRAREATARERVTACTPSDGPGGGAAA

[6] = AUC in plasma and brain following a single oral dose; type: in vivo, Rat (Sprague-Dawley); conditions: 300 mg/kg; for Kp: brain; for AUC(0-t): plasma, read-out: AUC0-24h Plasma
GDP-bound NRAS WT = target: T1, GDP-bound NRAS WT (Homo sapiens, UniProt P01111); assay: SOS1-mediated guanine nucleotide exchange assay (TR-FRET); type: biochemical
T1 construct: His-tagged NRAS WT (aa 1–172); made in house; host or cells: Escherichia coli
T1 sequence (P01111 1-172): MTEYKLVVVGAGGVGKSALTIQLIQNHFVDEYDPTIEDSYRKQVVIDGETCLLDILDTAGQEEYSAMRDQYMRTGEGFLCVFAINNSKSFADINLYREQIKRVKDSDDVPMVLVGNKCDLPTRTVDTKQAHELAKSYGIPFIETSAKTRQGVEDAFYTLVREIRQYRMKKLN

[7] = test system: p-ERK1/2 (Thr202/Tyr204) in NCI-H1373 cells (KRAS p.G12C); assay: cells; type: cell-based; conditions: Homo sapiens, NCI-H1373, 2 h, read-out: p-ERK IC50 (nM)
Method: For phospho-ERK (p-ERK) assays, cells were seeded in 96-well plates with appropriate density (refer to Supplementary Table S3) and incubated overnight, followed by treatment with a series of concentrations of compounds in the assay medium (containing 0.1% FBS) for 2 hours. […] Then, p-AKT1/2/3 (Ser473) was detected using the p-AKT1/2/3 (Ser473) cellular kit (Cisbio/Revvity) according to the manufacturer’s instructions. […] The IC50 values were calculated using GraphPad Prism (RRID: SCR_002798) by fitting a four-parameter dose–response curve.

Cannabinoid CB1 = Cannabinoid CB1 (Homo sapiens, UniProt P21554); assay: 41-target safety off-target activity panel
Chain of Cannabinoid CB1 (P21554 whole entry): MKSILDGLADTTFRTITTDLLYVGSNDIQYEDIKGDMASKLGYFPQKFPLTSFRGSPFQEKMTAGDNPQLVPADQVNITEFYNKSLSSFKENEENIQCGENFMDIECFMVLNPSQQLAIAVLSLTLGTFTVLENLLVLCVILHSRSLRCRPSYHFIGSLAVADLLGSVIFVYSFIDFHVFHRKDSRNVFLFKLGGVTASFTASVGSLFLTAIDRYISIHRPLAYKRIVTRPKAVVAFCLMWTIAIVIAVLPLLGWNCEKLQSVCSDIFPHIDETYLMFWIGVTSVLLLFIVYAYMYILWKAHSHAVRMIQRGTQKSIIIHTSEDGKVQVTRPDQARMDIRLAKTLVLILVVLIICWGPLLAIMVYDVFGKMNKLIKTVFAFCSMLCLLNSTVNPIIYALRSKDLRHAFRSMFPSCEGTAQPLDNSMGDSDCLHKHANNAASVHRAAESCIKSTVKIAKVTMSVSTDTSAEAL

[8] = test system: p-ERK1/2 (Thr202/Tyr204) in SW837 cells (KRAS p.G12C); assay: cells; conditions: Homo sapiens, SW837, 2 h, read-out: p-ERK IC50 (nM)
Method: (§2) For phospho-ERK (p-ERK) assays, cells were seeded in 96-well plates with appropriate density (refer to Supplementary Table S3) and incubated overnight, followed by treatment with a series of concentrations of compounds in the assay medium (containing 0.1% FBS) for 2 hours. Then p-ERK1/2 (Thr202/Tyr204) was detected using the advanced p-ERK1/2 (Thr202/Tyr204) cellular kit (Cisbio/Revvity) according to the manufacturer’s instructions. For phospho-AKT (p-AKT) assays, cells with appropriate density (refer to Supplementary Table S3) were treated with a series of concentrations of compound in culture medium for 24 hours in 96-well plates. Then, p-AKT1/2/3 (Ser473) was detected using the p-AKT1/2/3 (Ser473) cellular kit (Cisbio/Revvity) according to the manufacturer’s instructions. HTRF signals were recorded by the Tecan Spark multimode microplate reader (RRID: SCR_021897). The IC50 values were calculated using GraphPad Prism (RRID: SCR_002798) by fitting a four-parameter dose–response curve.
(§3) WT: wild type; AMP: amplification; CTG: CellTiter-Glo.

[9] = test system: p-ERK1/2 (Thr202/Tyr204) in MKN-1 cells (KRAS WT AMP); assay: cells; conditions: Homo sapiens, MKN-1, 2 h, read-out: p-ERK IC50 (nM)
Method: as §2, §3

[10] = test system: p-ERK1/2 (Thr202/Tyr204) in Capan-2 cells (KRAS p.G12V); assay: cells; conditions: Homo sapiens, Capan-2, 2 h, read-out: p-ERK IC50 (nM)
Method: as §2, §3

[11] = test system: p-ERK1/2 (Thr202/Tyr204) in NCI-H1792 cells (KRAS p.G12C); assay: cells; conditions: Homo sapiens, NCI-H1792, 2 h, read-out: p-ERK IC50 (nM)
Method: as §2, §3

[12] = Rat (Sprague-Dawley), Female, single dose
[13] = Rat (Sprague-Dawley), Male, single dose

Chain of Opioid μ (P35372 whole entry): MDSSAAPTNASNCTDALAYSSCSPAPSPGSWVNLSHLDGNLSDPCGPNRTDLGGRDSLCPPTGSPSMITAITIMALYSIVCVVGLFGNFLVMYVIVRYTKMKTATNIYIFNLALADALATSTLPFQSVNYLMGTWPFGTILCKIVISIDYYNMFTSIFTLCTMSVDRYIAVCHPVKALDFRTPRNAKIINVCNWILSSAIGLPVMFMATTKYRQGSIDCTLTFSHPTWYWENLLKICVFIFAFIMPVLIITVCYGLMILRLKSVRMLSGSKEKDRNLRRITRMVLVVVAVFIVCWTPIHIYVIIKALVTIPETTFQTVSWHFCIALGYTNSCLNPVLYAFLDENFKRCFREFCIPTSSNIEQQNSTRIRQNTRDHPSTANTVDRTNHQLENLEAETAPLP

**Q.** What does the source list for C=CC(=O)N1CCN(c2c(C#N)c(=O)n(-c3c(C)ccnc3C(C)C)c3nc(-c4c(N)c(F)c(F)c(F)c4F)c(Cl)cc23)CC1 [Glecirasib]?
**A.** inhibition at 10 µM (Opioid μ): 36.9%; Mean % activation (Opioid μ; Glecirasib 10 μM): 5.69%; IC50 [1]: 2.02 nM; IC50 [2]: 5.32 nM; inhibition at 10 µM [3]: 43.2%; Mean % activation ([3]; Glecirasib 10 μM): 19.92%; inhibition at 10 µM [4]: -35.7%; inhibition at 10 µM (Monoamine oxidase MAO-A): 14.8%; covalently bound targets among 9,378 unique cysteine-containing peptides [5]: the Cys12 peptide in KRAS G12C is the only covalently bound target; phototoxicity result (skin): No phototoxicity was observed; also recorded: negative; inhibition at 10 µM (Opioid δ): 33%; Mean % activation (Opioid δ; Glecirasib 10 μM): 8.42%; AUC0-24h Brain (h·ng/g) [6, 12]: 1,875 h·ng/g; AUC0-24h Brain (h·ng/g) [6, 13]: 1,677 h·ng/g; Kp ([6]; Sprague-Dawley, rat, rats, read-out: brain distribution, % of AUC in plasma): 0.1; Kp ([6]; Rat (Sprague-Dawley), Female, single dose, read-out: Brain/Plasma AUC0-24h ratio (%)): 0.102; Kp ([6]; Rat (Sprague-Dawley), Male, single dose, read-out: Brain/Plasma AUC0-24h ratio (%)): 0.0904; AUC(0-t) [6, 12]: 18400 ng·h/mL; AUC(0-t) [6, 13]: 18600 ng·h/mL; IC50 (GDP-bound NRAS WT): > 10 µM; IC50 [7]: 6.61 nM; inhibition at 10 µM (Cannabinoid CB1): -16.5%; Mean % activation (Cannabinoid CB1; Glecirasib 10 μM): -2.83%; IC50 [8]: 13.6 nM; IC50 [9]: 8380 nM; IC50 [10]: 5010 nM; IC50 [11]: 7.16 nM
